Like-named read-outs stand apart in the source and are kept apart here.
What was measured:
[1] = type: physicochemical
Protocol: It should be noted that other secondary emulsifiers (e.g., dimyristylphosphatidylglycerol (DMPG), Solutol HS15, and Tween 80) were tested at refrigerated temperature for droplet size stability improvement.

[2] = adult patients, cited from earlier work; for Cmax: read-out: Plasma Cmax

CCCCCCCCCCCCCC(=O)OCC(COP(=O)(O)OCC(O)CO)OC(=O)CCCCCCCCCCCCC (centres unmarked) [DMPG, dimyristylphosphatidylglycerol]
effect of secondary emulsifier on droplet size stability of the emulsion [1]: resulted in a viscous emulsion that would be difficult to draw a syringe

C=CCNC1=C2C[C@@H](C)C[C@H](OC)[C@H](O)[C@@H](C)/C=C(\C)[C@H](OC(N)=O)[C@@H](OC)/C=C\C=C(/C)C(=O)NC(=CC1=O)C2=O [Formulation 17-AAG, 17-(allylamino)-17-demethoxygeldanamycin]
Cmax ([2]; at 40 mg/m^2): 1860 ± 660 nM | Cmax ([2]; at 56 mg/m^2): 3170 ± 1310 nM | maximum tolerated dose (MTD) ([2]; daily 1-hour infusion for 5 days every three weeks): 40 mg/m^2 | clearance ([2]; mean±SD): 41.0 ± 13.5 L/h | terminal half-life ([2]; mean±SD): 2.5 ± 0.5 h

CCCCCCCC/C=C\CCCCCCCC(=O)O [oleic acid, cis-9-octadecenoic acid]
effect of secondary emulsifier on droplet size stability of the emulsion [1]: showed improved stability

Tween 80
effect of secondary emulsifier on droplet size stability of the emulsion [1]: did not improve the droplet size stability
